Literature values as cited in patent US9572781B2, “Orally disintegrating tablet compositions comprising combinations of non-opioid and opioid analgesics” (Adare Pharmaceuticals, Inc., priority 2009, dated 2017).

- Drug detectable (after about 8 hours): only traces
- Time to peak plasma concentrations (following oral administration): 30 to 60 min
SMILES: CC(=O)Nc1ccc(O)cc1 [acetaminophen]
